Results from ChEMBL document CHEMBL5550161, “Discovery of novel small molecules targeting the USP21/JAK2/STAT3 axis for the treatment of triple-negative breast cancer” (Eur J Med Chem, 2024).
pIC50: −log10 of the molar value. Calls of active or inactive are those of the source. The rule behind the calls is not given here.

Legend:
MDA-MB-231 [1] = assay: Anti-proliferative activity against human MDA-MB-231 cells assessed as cell growth inhibition incubated for 72 hrs by MTT assay; assay type: functional, cell-based; conditions: MDA-MB-231, 72 h
MDA-MB-231 [2] = assay: Anti-proliferative activity against human MDA-MB-231 cells assessed as reduction in EdU-positive cells at 0.2 uM; assay type: functional, cell-based
HCC1806 [3] = assay: Induction of cell cycle arrest at G2/M phase in human HCC1806 cells at 0.1 to 0.4 uM incubated for 24 hrs; assay type: functional, cell-based; conditions: dose 0.1-0.4 µM
MDA-MB-231 [4] = assay: Induction of apoptosis in human MDA-MB-231 cells assessed as early apoptotic cells at 0.1 uM incubated for 24 hrs by Annexin V-FITC/PI staining based flow cytometry (reference value: 1.16 %); assay type: functional
MDA-MB-231 [5] = assay: Induction of apoptosis in human MDA-MB-231 cells assessed as late apoptotic cells at 0.1 uM incubated for 24 hrs by Annexin V-FITC/PI staining based flow cytometry (reference value: 1.23 %); assay type: functional
MDA-MB-231 [6] = assay: Induction of apoptosis in human MDA-MB-231 cells assessed as viable cells at 0.2 uM incubated for 24 hrs by Annexin V-FITC/PI staining based flow cytometry (reference value: 97.54 %); assay type: functional; conditions: read-out: Activity
MDA-MB-231 [7] = assay: Induction of apoptosis in human MDA-MB-231 cells assessed as necrotic cells at 0.4 uM incubated for 24 hrs by Annexin V-FITC/PI staining based flow cytometry (reference value: 0.07 %); assay type: functional
MDA-MB-231 [8] = assay: Induction of apoptosis in human MDA-MB-231 cells assessed as viable cells at 0.8 uM incubated for 24 hrs by Annexin V-FITC/PI staining based flow cytometry (reference value: 97.54 %); assay type: functional; conditions: read-out: Activity
MDA-MB-231 [9] = assay: Induction of apoptosis in human MDA-MB-231 cells assessed as early apoptotic cells at 0.8 uM incubated for 24 hrs by Annexin V-FITC/PI staining based flow cytometry (reference value: 1.16 %); assay type: functional
MDA-MB-231 [10] = assay: Induction of apoptosis in human MDA-MB-231 cells assessed as late apoptotic cells at 0.8 uM incubated for 24 hrs by Annexin V-FITC/PI staining based flow cytometry (reference value: 1.23 %); assay type: functional
MDA-MB-231 [11] = assay: Induction of apoptosis in human MDA-MB-231 cells assessed as necrotic cells at 0.8 uM incubated for 24 hrs by Annexin V-FITC/PI staining based flow cytometry (reference value: 0.07 %); assay type: functional
HCC1806 [12] = assay: Induction of apoptosis in human HCC1806 cells assessed as viable cells at 0.1 uM incubated for 24 hrs by Annexin V-FITC/PI staining based flow cytometry (reference value: 98.95 %); assay type: functional; conditions: read-out: Activity
HCC1806 [13] = assay: Induction of apoptosis in human HCC1806 cells assessed as necrotic cells at 0.1 uM incubated for 24 hrs by Annexin V-FITC/PI staining based flow cytometry (reference value: 0.15 %); assay type: functional
HCC1806 [14] = assay: Induction of apoptosis in human HCC1806 cells assessed as viable cells at 0.2 uM incubated for 24 hrs by Annexin V-FITC/PI staining based flow cytometry (reference value: 98.95 %); assay type: functional; conditions: read-out: Activity
HCC1806 [15] = assay: Induction of apoptosis in human HCC1806 cells assessed as late apoptotic cells at 0.2 uM incubated for 24 hrs by Annexin V-FITC/PI staining based flow cytometry (reference value: 0.23 %); assay type: functional
HCC1806 [16] = assay: Induction of apoptosis in human HCC1806 cells assessed as viable cells at 0.4 uM incubated for 24 hrs by Annexin V-FITC/PI staining based flow cytometry (reference value: 98.95 %); assay type: functional; conditions: read-out: Activity
HCC1806 [17] = assay: Induction of apoptosis in human HCC1806 cells assessed as early apoptotic cells at 0.8 uM incubated for 24 hrs by Annexin V-FITC/PI staining based flow cytometry (reference value: 0.67 %); assay type: functional
HCC1806 [18] = assay: Induction of apoptosis in human HCC1806 cells assessed as late apoptotic cells at 0.8 uM incubated for 24 hrs by Annexin V-FITC/PI staining based flow cytometry (reference value: 0.23 %); assay type: functional
HCC1806 [19] = assay: Induction of apoptosis in human HCC1806 cells assessed as necrotic cells at 0.8 uM incubated for 24 hrs by Annexin V-FITC/PI staining based flow cytometry (reference value: 0.15 %); assay type: functional
HCC1806 [20] = assay: Induction of apoptosis in human HCC1806 cells assessed as viable cells at 1.6 uM incubated for 24 hrs by Annexin V-FITC/PI staining based flow cytometry (reference value: 98.95 %); assay type: functional; conditions: read-out: Activity
HCC1806 [21] = assay: Induction of apoptosis in human HCC1806 cells assessed as early apoptotic cells at 1.6 uM incubated for 24 hrs by Annexin V-FITC/PI staining based flow cytometry (reference value: 0.67 %); assay type: functional
HCC1806 [22] = assay: Induction of apoptosis in human HCC1806 cells assessed as ROS production rate at 0.4 uM incubated for 24 hrs by DCFH-DA staining based flow cytometry (reference value: 0.23 %); assay type: functional
MDA-MB-231 [23] = assay: Inhibition of cell invasion in human MDA-MB-231 cells; assay type: functional, cell-based; conditions: dose 0.05-2 µM
HCC1806 [24] = assay: Inhibition of cell invasion in human HCC1806 cells; assay type: functional, cell-based; conditions: dose 0.05-2 µM
MDA-MB-231 [25] = assay: Induction of apoptosis in human MDA-MB-231 cells assessed as decrease in JAK1 level by Western blot analysis; assay type: functional, cell-based; conditions: dose 0.1-0.4 µM
HCC1806 [26] = assay: Induction of apoptosis in human HCC1806 cells assessed as decrease in JAK2 level by Western blot analysis; assay type: functional, cell-based; conditions: dose 0.1-0.4 µM
HCC1806 [27] = assay: Induction of apoptosis in human HCC1806 cells assessed as decrease in STAT3 level by Western blot analysis; assay type: functional, cell-based; conditions: dose 0.1-0.4 µM
HCC1806 [28] = assay: Downregulation of USP21 level in human HCC1806 cells at 0.1 to 0.4 uM incubated for 24 hrs by Western blot analysis; assay type: functional, cell-based; conditions: dose 0.1-0.4 µM
[29] = Toxicity in Balb/c nude mouse assessed as animal mortality at 60 mg/kg, ip bid for 14 days consecutively; assay type: organism-based; conditions: in vivo, 336 h, time 14 day
[30] = Toxicity in Balb/c nude mouse assessed as behavioural changes at 60 mg/kg, ip bid for 14 days consecutively; assay type: organism-based; conditions: in vivo, 336 h, time 14 day
[31] = Tmax in Sprague-Dawley rat at 4 mg/kg, ip; assay type: ADME, organism-based; conditions: in vivo
[32] = Toxicity in Balb/c nude mouse assessed as histopathological change in heart at 60 mg/kg, ip bid for 14 days consecutively; assay type: organism-based; conditions: in vivo, 336 h, time 14 day
[33] = Toxicity in Balb/c nude mouse assessed as histopathological change in spleen at 60 mg/kg, ip bid for 14 days consecutively; assay type: organism-based; conditions: in vivo, 336 h, time 14 day
HCC1806 [34] = assay: Antitumor activity against human HCC1806 cells xenografted in Balb/c mouse assessed as reduction in tumor weight at 40 to 60 mg/kg, ip bid measured after 14 days; assay type: functional, organism-based; conditions: dose 40-60 mg/kg, time 14.0 day
HCC1806 [35] = assay: Antitumor activity against human HCC1806 cells xenografted in Balb/c mouse at 60 mg/kg, ip bid measured after 14 days relative to control; assay type: functional; conditions: HCC1806, 336 h, time 14 day, read-out: TGI
HCC1806 [36] = assay: Antitumor activity against human HCC1806 cells xenografted in Balb/c mouse assessed as decrease in JAK2 level at 40 to 60 mg/kg, ip bid measured after 14 days by immunofluorescence based analysis; assay type: functional, organism-based; conditions: dose 40-60 mg/kg, time 14.0 day
HCC1806 [37] = assay: Synergistic inhibition of cell proliferation in human HCC1806 cells assessed as combination index at 0.35 uM in presence of PTX; assay type: functional

With COc1cc(Nc2cc(F)ccc2C(=O)NCCc2c[nH]c3c(F)ccc(F)c23)cc(OC)c1OC the pIC50 (MDA-MB-231 [1]) was 6.72, the Activity (MDA-MB-231 [2]) was “Active” and the Activity (HCC1806 [3]) was “Active”. For the same molecule, the Activity (MDA-MB-231 [4]) was 1.66%, the Activity (MDA-MB-231 [5]) was 1.23% and the viability at 0.2 µM (MDA-MB-231 [6]) was 96.1%. The Activity (MDA-MB-231 [7]) was 0.14%, the viability at 0.8 µM (MDA-MB-231 [8]) was 94.6% and the Activity (MDA-MB-231 [9]) was 3.18%. It also gave an Activity (MDA-MB-231 [10]) of 2.15%, an Activity (MDA-MB-231 [11]) of 0.11% and a viability at 0.1 µM (HCC1806 [12]) of 99%. For the same molecule, the Activity (HCC1806 [13]) was 0.11%, the viability at 0.2 µM (HCC1806 [14]) was 98.1% and the Activity (HCC1806 [15]) was 0.45%. The viability at 0.4 µM (HCC1806 [16]) was 96%, the Activity (HCC1806 [17]) was 4.23% and the Activity (HCC1806 [18]) was 1.48%. For the same molecule, the Activity (HCC1806 [19]) was 0.29%, the viability at 1.6 µM (HCC1806 [20]) was 92.9% and the Activity (HCC1806 [21]) was 4.81%. The Activity (HCC1806 [22]) was 5%, the inhibition (MDA-MB-231 [23]) was “Active” and the inhibition (HCC1806 [24]) was “Active”. For the same molecule, the Activity (MDA-MB-231 [25]) was “Active”, the Activity (HCC1806 [26]) was “Active” and the Activity (HCC1806 [27]) was “Active”. The Activity (HCC1806 [28]) was “Active”, the Activity [29] was “Non-Toxic” and the Activity [30] was “Non-Toxic”. For the same molecule, the Tmax [31] was 2.67 h, the Activity [32] was “Non-Toxic” and the Activity [33] was “Non-Toxic”. For the same molecule, the Activity (HCC1806 [34]) was “Active”, the inhibition in vivo at 60 mg/kg (HCC1806 [35]) was 67.7% and the Activity (HCC1806 [36]) was “Active”. For the same molecule, the CI (HCC1806 [37]) was <1.
